Assay results taken from patent US5039679A, “Certain derivatives of 1,4-dihydro-5-isopropoxy-1,6-naphthyridine-3-carboxylic acid, pharmaceutical compositions containing them, and methods of using them” (Goedecke Aktiengesellschaft, priority 1989, dated 1991).
Counter-ions that a name gives are not always drawn. Like-named read-outs stand apart in the source and are kept apart here.

Key:
[1] = pharmacological results, blood pressure lowering activity compared with other derivatives; format: in vivo; conditions: in comparison with the other derivatives, in words
Source text: The pharmacological results are even more marked in the case of the […] which were obtained according to the usual methods of racemate separation.

[2] = Solubility in water and artificial gastric juice (Table 1); format: physicochemical
[3] = stress test, 2 weeks, heat or light (stability); format: physicochemical
Procedure: The hydrochloride is unstable even at ambient temperature and a stress test gave, after heating for 2 weeks at 45° C. in the dark, 10% of decomposition products and at ambient temperature in the light 30% of the compound had decomposed after 2 weeks.
In addition, it is also stable under the above-mentioned stress conditions (2 weeks at 45° C. in the dark and 2 weeks at ambient temperature in the light).

[4] = animal experiments, commencement of activity; format: in vivo; conditions: in words
[5] = test system: Spontaneously Hypertensive Rats; experiment: blood pressure lowering after oral administration, Spontaneously Hypertensive Rats (Table 2); format: in vivo
Source text: |Spontaneously Hypertensive Rats

[6] = Spontaneously Hypertensive Rats, 1 mg/kg PO, n = 6, 1 mg/kg

| Structure (SMILES) | blood pressure lowering activity [1] | Solubility in Artificial Gastric Juice [2] [%] | solubility in water ([2]; in words) | solubility in water ([2]; water) [%] | degraded at 336 h ([3]; after heating for 2 weeks at 45° C. in the dark, read-out: decomposition products) [%] | degraded at 336 h ([3]; ambient temperature in the light, after 2 weeks, read-out: decomposed compound) [%] | stability ([3]; ambient temperature, in words) | commencement of activity [4] | blood pressure lowering action [5, 6] | stability under stress conditions ([3]; 2 weeks at 45° C. in the dark and 2 weeks at ambient temperature in the light, in words) | commencement of activity ([5]; rats, oral administration, fumarate compared with hydrochloride, in words) | blood pressure lowering action ([5]; rats, oral, fumarate compared with hydrochloride, in words) |
| --- | --- | --- | --- | --- | --- | --- | --- | --- | --- | --- | --- | --- |
| CC1=C(C(=O)OCCN(C)Cc2ccccc2)C(c2ccccc2C(F)(F)F)c2c(ccnc2OC(C)C)N1 (single isomer, unassigned; (+)) [(+)-1,4-dihydro-5-isopropoxy-2-methyl-4-(2-trifluoro-methylphenyl)-1,6-naphthyridine-3-carboxylic acid [2-(N-methyl-N-phenylmethylamino)-ethyl] ester] | Especially active |  |  |  |  |  |  |  |  |  |  |  |
| CC1=C(C(=O)OCCN(C)Cc2ccccc2)C(c2ccccc2C(F)(F)F)c2c(ccnc2OC(C)C)N1 (racemic) [(±), (±)-1,4-dihydro-5-isopropoxy-2-methyl-4-(2-trifluoromethylphenyl)-1,6-naphthyridine-3-carboxylic acid [2-(N-methyl-N-phenyl-methylamino)-ethyl] ester fumarate] | especially marked blood pressure lowering activity |  |  |  |  |  |  |  |  |  |  |  |
| CC1=C(C(=O)OCCN(C)Cc2ccccc2)C(c2ccccc2C(F)(F)F)c2c(ccnc2OC(C)C)N1 (single isomer, unassigned) [Hydrochloride, reference compound] |  | 20 | good solubility | 20 | 10 | 30 | unstable | very rapid commencement of activity | 17% ± 4.4 |  |  |  |
| CC1=C(C(=O)OCCN(C)Cc2ccccc2)C(c2ccccc2C(F)(F)F)c2c(ccnc2OC(C)C)N1 (single isomer, unassigned; (+)) [Fumarate, (+)-1,4-dihydro-5-isopropoxy-2-methyl-4-(2-trifluoromethylphenyl)1,6-naphthyridine-3-carboxylic acid [2-(N-methyl-N-phenyl-methylamino)-ethyl] ester fumarate] |  | 1.5 | considerable lower water solubility | 0.1 |  |  |  |  | 26% ± 1.7 | stable | somewhat later | substantially stronger |
